Laboratory results as given in US20230183216A1, “PYRIDIZIN-3(2H)-ONE DERIVATIVES” (Gilead Sciences, Inc., priority 2021, published 2023).

What was measured:
PARP7 = target: T1, PARP7 (Homo sapiens, UniProt Q7Z3E1); experiment: biochemical;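 also: MSD light signal quantifying PARP7 captured by a plate-immobilized probe, read after 1.5 h equilibration plus 1.5 h with SULFO-TAG anti-GST antibody at room temperature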
T1 sequence (Q7Z3E1 1-657): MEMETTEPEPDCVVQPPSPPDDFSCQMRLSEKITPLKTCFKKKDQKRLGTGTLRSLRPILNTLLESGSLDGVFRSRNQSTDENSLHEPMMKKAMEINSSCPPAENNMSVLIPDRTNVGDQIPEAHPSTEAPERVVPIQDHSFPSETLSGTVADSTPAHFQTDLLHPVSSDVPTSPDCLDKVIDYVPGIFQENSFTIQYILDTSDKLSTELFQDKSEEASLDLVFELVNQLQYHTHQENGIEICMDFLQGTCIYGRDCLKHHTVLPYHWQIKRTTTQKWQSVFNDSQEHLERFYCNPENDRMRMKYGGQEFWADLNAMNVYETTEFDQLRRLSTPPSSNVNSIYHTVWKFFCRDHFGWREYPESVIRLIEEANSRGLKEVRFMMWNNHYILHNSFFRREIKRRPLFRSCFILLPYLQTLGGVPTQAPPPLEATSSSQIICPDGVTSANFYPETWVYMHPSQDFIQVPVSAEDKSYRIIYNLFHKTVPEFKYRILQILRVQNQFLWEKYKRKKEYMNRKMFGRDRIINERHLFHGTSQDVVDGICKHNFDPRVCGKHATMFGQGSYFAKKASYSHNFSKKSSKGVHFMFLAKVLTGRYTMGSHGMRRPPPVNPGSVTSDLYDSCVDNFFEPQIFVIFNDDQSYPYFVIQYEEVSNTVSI
Description: Probe Displacement Assay for PARP7 Displacement of a biotinylated probe (RBN011147; Wigle et al., Cell Chemical Biology, 2020, pp. 877-887) from the PARP7 NAD+-binding site was measured in vitro using a Mesoscale Discovery electrochemiluminescent assay. […] Next, 10 μl of 10 nM PARP7 protein incubated for 1 hour at room temperature with a dose response curve of each test compound in a Greiner LDV polypropylene plate (#781201) is added to the MSD plate containing the immobilized probe. The interaction is allowed to reach equilibrium for 1.5 hours, and then 10 ul of SULFO-TAG labeled anti-GST antibody (Cat #R32AA-1) is added to each well and allowed to incubate for an additional 1.5 hours at room temperature. Finally, 10 μl of MSD read buffer T (4×, Cat. #R92C-1) is added to each well using a Bravo liquid handler to prevent air bubbles in the wells, and the plates are subsequently read in an MSD instrument. Light intensity is then measured to quantify the amount of PARP7 bound to the immobilized probe on the plate.

[1] = test system: STAT1 (phosphorylated at Tyr701) in NCI-H1373 cells; experiment: Phospho-STAT1 (Tyr701) LANCE Ultra TR-FRET Detection Assay; assay type: cell-based; settings: Homo sapiens, 48 hours, induction of pSTAT1, normalized to 10 uM positive control and DMSO, 4-parameter fit, read-out: NH1373 pSTAT1 EC50
Description: Phospho-STAT1 (Tyr701 LANCE Ultra TR-FRET Detection Assay
LANCE Ultra phospho-STAT1 (Tyr701) kits available from Perkin Elmer are designed for the detection of phosphorylated STAT1 in cell lysates using a simple, homogeneous LANCE Ultra sandwich assay (Cat. #TRF4028M). This assay is intended for assessing compound induction of endogenous levels of cellular STAT1 (phosphorylated at Tyr701) in NCI-H1373 cells. The NCI-H1373 cells are cultured in RPMI 1640 media containing 10% heat inactivated FBS, GlutaMAX, 1% Penicillin-Streptomycin. An Echo acoustic liquid handler is used to transfer 60 nanoliters of compound dilutions using the Echo Qualified, 384-well polypropylene microplate clear flat bottom source plates into a Greiner (#781080) cell culture microplate. NCI-H1373 cells are seeded into these compound-spotted culture plates at 30,000 cells/well in a 60 uL volume in growth media. The plates are incubated in a 5% CO2 humidified incubator at 37° C. for 48 hours. […] Briefly, 20 μL of supplemented lysis buffer is added to each well and allowed to shake for 1 hour at 400 rpm. Next, 5 ul of remixed antibody solutions (vol/vol) prepared in detection buffer are added to each well and allowed to incubate at room temperature overnight. After spinning the plate down at 300 rpm for […], the plate is read on an EnVision plate reader set up for Eu3+ Cryptate and fluorescence emission is measured at two different wavelengths (665 nm and 620 nm).

Compound | IC50 (PARP7) [nM] | EC50 [1] [nM]
O=C(CCCc1cc(C(F)(F)F)c(=O)[nH]n1)N1CCN(c2ncc(C(F)(F)F)cn2)CC1 [Example 11, 6-(4-oxo-4-(4-(5-(trifluoromethyl)pyrimidin-2-yl)piperazin-1-yl)butyl)-4-(trifluoromethyl)pyridazin-3(2H)-one] | 4.67 | 1500
O=C(CC1(CNc2cc(C(F)(F)F)c(=O)[nH]n2)CC1)N1CCN(c2ncc(C(F)(F)F)cn2)CC1 [Example 12, 6-(((1-(2-oxo-2-(4-(5-(trifluoromethyl)pyrimidin-2-yl)piperazin-1-yl)ethyl)cyclopropyl)methyl)amino)-4-(trifluoromethyl)pyridazin-3(2H)-one] | 0.364 | 201
O=C(OCCCc1cc(C(F)(F)F)c(=O)[nH]n1)N1CCN(c2ncc(C(F)(F)F)cn2)CC1 [Example 13, 3-(6-oxo-5-(trifluoromethyl)-1,6-dihydropyridazin-3-yl)propyl 4-(5-(trifluoromethyl)pyrimidin-2-yl)piperazine-1-carboxylate] | 1.33 | 1160
O=C(OC/C=C/c1cc(C(F)(F)F)c(=O)[nH]n1)N1CCN(c2ncc(C(F)(F)F)cn2)CC1 [Example 14, (E)-3-(6-oxo-5-(trifluoromethyl)-1,6-dihydropyridazin-3-yl)allyl 4-(5-(trifluoromethyl)pyrimidin-2-yl)piperazine-1-carboxylate] | 1.22 | 1000
O=C(CCCNc1cc(C(F)(F)F)c(=O)[nH]n1)N1CCN(c2ncc(C(F)(F)F)cn2)CC1 [Example 15, 6-((4-oxo-4-(4-(5-(trifluoromethyl)pyrimidin-2-yl)piperazin-1-yl)butyl)amino)-4-(trifluoromethyl)pyridazin-3(2H)-one] | 0.263 | 71.9
O=C(CNc1cc(C(F)(F)F)c(=O)[nH]n1)N1CCN(c2ncc(C(F)(F)F)cn2)CC1 [Example 16, 6-((2-oxo-2-(4-(5-(trifluoromethyl)pyrimidin-2-yl)piperazin-1-yl)ethyl)amino)-4-(trifluoromethyl)pyridazin-3(2H)-one] | 1.15 | 171
O=C(CCNc1cc(C(F)(F)F)c(=O)[nH]n1)N1CCN(c2ncc(C(F)(F)F)cn2)CC1 [Example 17, 6-((3-oxo-3-(4-(5-(trifluoromethyl)pyrimidin-2-yl)piperazin-1-yl)propyl)amino)-4-(trifluoromethyl)pyridazin-3(2H)-one] | 12.1 | 973
O=C(c1cccc(Nc2cc(C(F)(F)F)c(=O)[nH]n2)c1)N1CCN(c2ncc(C(F)(F)F)cn2)CC1 [Example 18, 4-(trifluoromethyl)-6-((3-(4-(5-(trifluoromethyl)pyrimidin-2-yl)piperazine-1-carbonyl)phenyl)amino)pyridazin-3(2H)-one] | 32.7 | ≥ 10000
O=C(c1cccc(CNc2cc(C(F)(F)F)c(=O)[nH]n2)c1)N1CCN(c2ncc(C(F)(F)F)cn2)CC1 [Example 19, 4-(trifluoromethyl)-6-((3-(4-(5-(trifluoromethyl)pyrimidin-2-yl)piperazine-1-carbonyl)benzyl)amino)pyridazin-3(2H)-one] | 16.3 | ≥ 10000
O=C(OCCNc1cc(C(F)(F)F)c(=O)[nH]n1)N1CCN(c2ncc(C(F)(F)F)cn2)CC1 [Example 20, 2-((6-oxo-5-(trifluoromethyl)-1,6-dihydropyridazin-3-yl)amino)ethyl4-(5-(trifluoromethyl)pyrimidin-2-yl)piperazine-1-carboxylate] | 1.76 | ≥ 10000
O=c1[nH]nc(NCCCS(=O)(=O)N2CCN(c3ncc(C(F)(F)F)cn3)CC2)cc1C(F)(F)F [Example 21, 4-(trifluoromethyl)-6-((3-((4-(5-(trifluoromethyl)pyrimidin-2-yl)piperazin-1-yl)sulfonyl)propyl)amino)pyridazin-3(2H)-one] | 18.6 | ≥ 10000
O=C([C@@H]1C[C@H]1CNc1cc(C(F)(F)F)c(=O)[nH]n1)N1CCN(c2ncc(C(F)(F)F)cn2)CC1 [Example 22, 4-(trifluoromethyl)-6-((((1R,2R)-2-(4-(5-(trifluoromethyl)pyrimidin-2-yl)piperazine-1-carbonyl)cyclopropyl)methyl)amino)pyridazin-3(2H)-one] | 2.57 | ≥ 10000
O=C(CCCCNc1cc(C(F)(F)F)c(=O)[nH]n1)N1CCN(c2ncc(C(F)(F)F)cn2)CC1 [Example 23, 6-((5-oxo-5-(4-(5-(trifluoromethyl)pyrimidin-2-yl)piperazin-1-yl)pentyl)amino)-4-(trifluoromethyl)pyridazin-3(2H)-one] | 0.521 | 532
O=C([C@@H](O)CCNc1cc(C(F)(F)F)c(=O)[nH]n1)N1CCN(c2ncc(C(F)(F)F)cn2)CC1 [Example 25, (S)-6-((3-hydroxy-4-oxo-4-(4-(5-(trifluoromethyl)pyrimidin-2-yl)piperazin-1-yl)butyl)amino)-4-(trifluoromethyl)pyridazin-3(2H)-one] | 0.141 | 21.3
O=C([C@H](O)CCNc1cc(C(F)(F)F)c(=O)[nH]n1)N1CCN(c2ncc(C(F)(F)F)cn2)CC1 [Example 26, (R)-6-((3-hydroxy-4-oxo-4-(4-(5-(trifluoromethyl)pyrimidin-2-yl)piperazin-1-yl)butyl)amino)-4-(trifluoromethyl)pyridazin-3(2H)-one] | 1.6 | 901
O=C(CC[C@@H]1CCCN1c1cc(C(F)(F)F)c(=O)[nH]n1)N1CCN(c2ncc(C(F)(F)F)cn2)CC1 [Example 27, (S)-6-(2-(3-oxo-3-(4-(5-(trifluoromethyl)pyrimidin-2-yl)piperazin-1-yl)propyl)pyrrolidin-1-yl)-4-(trifluoromethyl)pyridazin-3(2H)-one] | 0.212 | 9.31
O=C([C@@H]1CCCCN1c1cc(C(F)(F)F)c(=O)[nH]n1)N1CCN(c2ncc(C(F)(F)F)cn2)CC1 [Example 28, (S)-4-(trifluoromethyl)-6-(2-(4-(5-(trifluoromethyl)pyrimidin-2-yl)piperazine-1-carbonyl)piperidin-1-yl)pyridazin-3(2H)-one] | 0.879 | 264
CN(c1cccc(C(=O)N2CCN(c3ncc(C(F)(F)F)cn3)CC2)c1)c1cc(C(F)(F)F)c(=O)[nH]n1 [Example 29, 6-(methyl(3-(4-(5-(trifluoromethyl)pyrimidin-2-yl)piperazine-1-carbonyl)phenyl)amino)-4-(trifluoromethyl)pyridazin-3(2H)-one] | 30.6 | ≥ 10000
O=C(C[C@@H]1CCCCN1c1cc(C(F)(F)F)c(=O)[nH]n1)N1CCN(c2ncc(C(F)(F)F)cn2)CC1 [Example 30, (S)-6-(2-(2-oxo-2-(4-(5-(trifluoromethyl)pyrimidin-2-yl)piperazin-1-yl)ethyl)piperidin-1-yl)-4-(trifluoromethyl)pyridazin-3(2H)-one] | 2.32 | 779
O=C(CC[C@@H]1CCCCN1c1cc(C(F)(F)F)c(=O)[nH]n1)N1CCN(c2ncc(C(F)(F)F)cn2)CC1 [Example 31, (S)-6-(2-(3-oxo-3-(4-(5-(trifluoromethyl)pyrimidin-2-yl)piperazin-1-yl)propyl)piperidin-1-yl)-4-(trifluoromethyl)pyridazin-3(2H)-one] | 0.671 | 172
CN(CCCC(=O)N1CCN(c2ncc(C(F)(F)F)cn2)CC1)c1cc(C(F)(F)F)c(=O)[nH]n1 [Example 32, 6-(methyl(4-oxo-4-(4-(5-(trifluoromethyl)pyrimidin-2-yl)piperazin-1-yl)butyl)amino)-4-(trifluoromethyl)pyridazin-3(2H)-one] | 0.233 | 75.6
O=C(CC[C@H]1CCCCN1c1cc(C(F)(F)F)c(=O)[nH]n1)N1CCN(c2ncc(C(F)(F)F)cn2)CC1 [Example 33, (R)-6-(2-(3-oxo-3-(4-(5-(trifluoromethyl)pyrimidin-2-yl)piperazin-1-yl)propyl)piperidin-1-yl)-4-(trifluoromethyl)pyridazin-3(2H)-one] | 2.92 | 1220
